A short description of data set [1]: chemical recovery from spiked human plasma; higher = better extraction. Conditions: pooled human plasma.
Data set [2] can be described thus: chemical recovery into PDMS from spiked human plasma; higher = better extraction. Conditions: pooled human plasma, extraction method: PES with PDMS.
The nature of data set [3]: chemical recovery by SPE of plasma after PDMS sampling; higher = better extraction. Conditions: pooled human plasma, extraction method: HLB SPE of plasma after PES.
Where [4] appears, read: extraction method: PES+SPE (3 d PDMS equilibration then HLB SPE).
The mark [5] stands for this setting: extraction method: SPE only (HLB 96-well).
Where [6] appears, read: extraction method: SPE only (HLB 96-well), PES comparison experiment.
[7] abbreviates: extraction method: solvent precipitation (ACN + hexane).

± gives the standard deviation.
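Throughout, for chemical recovery by SPE of plasma after PDMS sampling: over 400 spiked chemicals quantified by LC-HRMS or GC-HRMS via internal standard calibration, recovery relative to spike mix added to unspiked plasma extract to correct matrix effects.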

`Nc1ccccc1-c1ccccc1` [2-Aminobiphenyl]: the chemical recovery is 17.3 ± 3.9% in data set [1] (setting [4]), 22.6 ± 0.6% in data set [1] (setting [5]), 27.7 ± 4.4% in data set [1] (setting [6]) and 2.86 ± 5% in data set [1] (setting [7]). Also, the “chemical recovery into PDMS” value amounted to 14.2 ± 6.8% in data set [2] (equilibration time (d): 1) and 14 ± 7.3% in data set [2] (equilibration time (d): 3).
For `CC(C)c1ccc2sc3ccccc3c(=O)c2c1` [2-Isopropylthioxanthone], the chemical recovery in data set [1] (setting [5]) was 33.5 ± 9.6%; in data set [1] (setting [6]) it was 19.8 ± 4.6%. Besides, the “chemical recovery into PDMS” value in data set [2] (equilibration time (d): 1) came to 45.3 ± 4.8%; in data set [2] (equilibration time (d): 3), 48.5 ± 4.6%; in data set [2] (equilibration time (d): 6), 46.7 ± 2.5%.
Regarding `Clc1ccc(C(c2ccc(Cl)cc2)C(Cl)Cl)cc1` [4,4-DDD], the “chemical recovery into PDMS” value in data set [2] (equilibration time (d): 1) came out at 1.61 ± 0.67%; in data set [2] (equilibration time (d): 3), 1.42 ± 0.086%; in data set [2] (equilibration time (d): 6) it was 1.39 ± 0.11%.
For the compound `O=c1[nH]cc(F)c(=O)[nH]1` [5-Fluorouracil], the values for the chemical recovery in data set [1] (setting [4]) and in data set [1] (setting [5]) were 0.502 ± 0.11% and 0.392 ± 0.68%, respectively. Also, the “chemical recovery into PDMS” value in data set [2] (equilibration time (d): 3) was 0.00395 ± 0.0068%.
With `CC(=O)[C@@]1(O)CC[C@H]2[C@@H]3CCC4=CC(=O)CC[C@]4(C)[C@H]3CC[C@@]21C` [17alpha-Hydroxyprogesterone], in data set [1] (setting [6]), the chemical recovery was found to be 51.1 ± 7.7%. The “chemical recovery into PDMS” value in data set [2] (equilibration time (d): 1) is 7.94 ± 0.8%; in data set [2] (equilibration time (d): 3), 12.2 ± 1.3%; in data set [2] (equilibration time (d): 6), 13.1 ± 1.1%.
With `N#CSCSc1nc2ccccc2s1` [(Benzothiazol-2-ylthio)methyl thiocyanate], in data set [1] (setting [6]), the chemical recovery was 33.5 ± 7.2%. Also, the “chemical recovery into PDMS” value was determined as 24.8 ± 3.2% in data set [2] (equilibration time (d): 1), 11 ± 4% in data set [2] (equilibration time (d): 3) and 13.3 ± 4.5% in data set [2] (equilibration time (d): 6).
The like results for `c1ccc2cc3ccccc3cc2c1` [Anthracene] were, in that order, 17.7 ± 2.9%, 70 ± 4.1%, 79.7 ± 8.8% and 80.6 ± 8%.
Consider `c1ccc2cc3c(cc2c1)-c1cccc2cccc-3c12` [Benzo(k)fluoranthene], for which the chemical recovery in data set [1] (setting [5]) worked out at 1.23 ± 0.43%; in data set [1] (setting [7]), 50.7 ± 1.6%. Also, the “chemical recovery into PDMS” value was 92.5 ± 5.6% in data set [2] (equilibration time (d): 3) and 93.8 ± 18% in data set [2] (equilibration time (d): 6).
In data set [1] (setting [5]), `CCCCCCCCCCCCCC[N+](C)(C)Cc1ccccc1` [Benzyldimethyltetradecylammonium] displayed a chemical recovery of 66.8 ± 24%. The “chemical recovery into PDMS” value in data set [2] (equilibration time (d): 6) is 0.508 ± 1%.
As to `CCC(=O)OCC(=O)[C@@]1(OC(=O)CC)[C@@H](C)C[C@H]2[C@@H]3CCC4=CC(=O)C=C[C@]4(C)[C@@]3(F)[C@@H](O)C[C@@]21C` [Betamethasone dipropionate], in data set [1] (setting [6]), the chemical recovery is 39.3 ± 5.3%. Further, the figures for the “chemical recovery into PDMS” value in data set [2] (equilibration time (d): 1), in data set [2] (equilibration time (d): 3) and in data set [2] (equilibration time (d): 6) were 42.4 ± 3%, 44 ± 1.3% and 45.4 ± 3.2%, respectively.
In data set [1] (setting [5]), `O=S(=O)(c1ccc(Cl)cc1)c1ccc(Cl)cc1` [Bis(4-chlorophenyl)sulfone] returned a chemical recovery of 4.65 ± 1.5%. For the same compound, the “chemical recovery into PDMS” value in data set [2] (equilibration time (d): 1) is 41.4 ± 2.9%; in data set [2] (equilibration time (d): 6), 39.6 ± 14%.
Compound `CC1C(C)(C)C2=C(C(=O)CCC2)C1(C)C` (stereo not drawn) [Cashmeran] yielded a chemical recovery in data set [1] (setting [6]) of 2.88 ± 2%. Moreover, the “chemical recovery into PDMS” value came to 20.3 ± 6.3% in data set [2] (equilibration time (d): 1), 23.2 ± 9.8% in data set [2] (equilibration time (d): 3) and 17.8 ± 2.9% in data set [2] (equilibration time (d): 6).
Consider `CC(=O)c1cc(C(C)(C)C)cc2c1CCC2(C)C` [Celestolide], for which the values for the chemical recovery in data set [1] (setting [5]) and in data set [1] (setting [7]) were 1.5 ± 0.73% and 76.6 ± 27%, respectively. For the same compound, the “chemical recovery into PDMS” value stood at 33.2 ± 0.97% in data set [2] (equilibration time (d): 1), 37.6 ± 3.8% in data set [2] (equilibration time (d): 3) and 34.7 ± 3.6% in data set [2] (equilibration time (d): 6).
Take `CC=CC(=O)N(CC)c1ccccc1C` [Crotamiton]: the chemical recovery in data set [1] (setting [5]) turned out to be 37 ± 4.8%; in data set [1] (setting [6]), 36.1 ± 7.8%; in data set [1] (setting [7]) it was 56.3 ± 3.9%. For the same compound, the “chemical recovery into PDMS” value in data set [2] (equilibration time (d): 6) turned out to be 36.1 ± 0.56%.
On to `O=P1(N(CCCl)CCCl)NCCCO1` (stereo not drawn) [Cyclophosphamide], for which the chemical recovery amounted to 49.6 ± 4.1% in data set [1] (setting [4]), 41 ± 4% in data set [1] (setting [5]), 55 ± 4.7% in data set [1] (setting [6]) and 70.9 ± 3.3% in data set [1] (setting [7]). Also, the “chemical recovery into PDMS” value in data set [2] (equilibration time (d): 1) was found to be 1.55 ± 2.7%; in data set [2] (equilibration time (d): 3), 2.5 ± 4.3%; in data set [2] (equilibration time (d): 6) it was 6.21 ± 5.4%.
Turning to `CCCCCCCCn1sc(Cl)c(Cl)c1=O` [DCOIT], the chemical recovery in data set [1] (setting [5]) came to 27.3 ± 3.7%. Besides, the “chemical recovery into PDMS” value in data set [2] (equilibration time (d): 1) turned out to be 25.7 ± 3.8%; in data set [2] (equilibration time (d): 3), 3.03 ± 5.2%; in data set [2] (equilibration time (d): 6), 5.33 ± 4.6%.
As for `CCCCOP(=O)(O)OCCCC` [Di-n-butyl phosphate], the chemical recovery in data set [1] (setting [4]) was determined as 42.2 ± 5%; in data set [1] (setting [5]) it was 33.5 ± 3.3%; in data set [1] (setting [7]) it was 67.8 ± 3.6%. Also, the “chemical recovery into PDMS” value in data set [2] (equilibration time (d): 1) was 25.9 ± 1.5%; in data set [2] (equilibration time (d): 3), 31.1 ± 3.2%; in data set [2] (equilibration time (d): 6), 30.9 ± 1.4%.
As to `O=C1C2CC3C1C1(Cl)C(Cl)C4(Cl)C2C3C1(Cl)C4(Cl)Cl` (stereo not drawn) [Endrinketone], the “chemical recovery into PDMS” value in data set [2] (equilibration time (d): 1) turned out to be 75.4 ± 13%; in data set [2] (equilibration time (d): 3) it was 90.3 ± 7%; in data set [2] (equilibration time (d): 6), 87.5 ± 2.9%.
For the compound `CCOP(=S)(OCC)SCSP(=S)(OCC)OCC` [Ethion], the chemical recovery amounted to 37.2 ± 9.9% in data set [1] (setting [5]) and 31.7 ± 5.8% in data set [1] (setting [6]). Also, the entries for the “chemical recovery into PDMS” value in data set [2] (equilibration time (d): 1), in data set [2] (equilibration time (d): 3) and in data set [2] (equilibration time (d): 6) were 48.1 ± 8.9%, 47.4 ± 4.3% and 46.7 ± 1.1%, respectively.
For the compound `CC(C)OC(=O)C(C)(C)Oc1ccc(C(=O)c2ccc(Cl)cc2)cc1` [Fenofibrate], the chemical recovery in data set [1] (setting [6]) worked out at 31.5 ± 6%. The “chemical recovery into PDMS” value in data set [2] (equilibration time (d): 1) stood at 47.1 ± 4.2%; in data set [2] (equilibration time (d): 3), 50.6 ± 5.3%; in data set [2] (equilibration time (d): 6), 48 ± 3.2%.
With `CCOC(=O)NCCOc1ccc(Oc2ccccc2)cc1` [Fenoxycarb], the chemical recovery in data set [1] (setting [7]) was 72 ± 7.2%. Further, the “chemical recovery into PDMS” value in data set [2] (equilibration time (d): 1) is 52.1 ± 2.8%; in data set [2] (equilibration time (d): 3) it was 54.3 ± 4.4%; in data set [2] (equilibration time (d): 6), 52.2 ± 7.9%.
Take `CC(=O)C1(C)CC2=C(CCCC2(C)C)CC1C` (stereo not drawn) [ISO E Super]: in data set [1] (setting [5]), the chemical recovery was 2.41 ± 2.6%. Further, the entries for the “chemical recovery into PDMS” value in data set [2] (equilibration time (d): 1), in data set [2] (equilibration time (d): 3) and in data set [2] (equilibration time (d): 6) were 33.8 ± 6.6%, 34.9 ± 2.3% and 42.6 ± 7%, respectively.
Consider `COC(=O)N(C(=O)N1CO[C@@]2(C(=O)OC)Cc3cc(Cl)ccc3C2=N1)c1ccc(OC(F)(F)F)cc1` [Indoxacarb], for which the chemical recovery in data set [1] (setting [5]) came to 61.3 ± 15%; in data set [1] (setting [6]) it was 38.3 ± 8.6%. Also, the results for the “chemical recovery into PDMS” value in data set [2] (equilibration time (d): 1), in data set [2] (equilibration time (d): 3) and in data set [2] (equilibration time (d): 6) were 52.6 ± 5.8%, 52 ± 9.1% and 53.2 ± 3.8%, respectively.
`CC1=CC(=O)CC(C)(C)C1` [Isophorone] had a chemical recovery in data set [1] (setting [5]) of 0.623 ± 0.28%. Further, the “chemical recovery into PDMS” value in data set [2] (equilibration time (d): 1) came to 4.8 ± 8.3%.
For `O=C(O)C(F)(F)C(F)(F)C(F)(F)F` [Perfluorobutanoic acid], the chemical recovery came out at 26.4 ± 3.3% in data set [1] (setting [4]), 23.3 ± 2.6% in data set [1] (setting [5]), 41.2 ± 3.3% in data set [1] (setting [6]) and 73 ± 7.5% in data set [1] (setting [7]). The “chemical recovery by SPE of plasma” value was 24.1 ± 6% in data set [3] (equilibration time (d): 1), 23.9 ± 1.9% in data set [3] (equilibration time (d): 3) and 23.3 ± 8.1% in data set [3] (equilibration time (d): 6).
For `O=C(O)C(F)(F)C(F)(F)C(F)(F)C(F)(F)C(F)(F)C(F)(F)C(F)(F)C(F)(F)C(F)(F)F` [Perfluorodecanoic acid], in data set [1] (setting [5]), the chemical recovery is 20.4 ± 10%. Also, the “chemical recovery by SPE of plasma” value amounted to 25.3 ± 4.6% in data set [3] (equilibration time (d): 1) and 24.1 ± 4.5% in data set [3] (equilibration time (d): 3).
Take `CC(=O)c1cc2c(cc1C)C(C)(C)C(C)C2(C)C` (stereo not drawn) [Phantolide]: the “chemical recovery into PDMS” value in data set [2] (equilibration time (d): 1) was 32.9 ± 0.97%; in data set [2] (equilibration time (d): 3), 37.4 ± 3.8%; in data set [2] (equilibration time (d): 6) it was 34.1 ± 3.6%.
On to `c1ccc2c(c1)ccc1ccccc12` [Phenanthrene], for which the values for the chemical recovery in data set [1] (setting [5]) and in data set [1] (setting [6]) were 8.44 ± 0.76% and 20.8 ± 2.2%, respectively. In addition, the “chemical recovery by SPE of plasma” value in data set [3] (equilibration time (d): 1) was 2.82 ± 2.2%; in data set [3] (equilibration time (d): 3), 2.33 ± 0.82%; in data set [3] (equilibration time (d): 6), 3.01 ± 1.1%.
As to `CCc1ccc(CCOc2ccc(CC3SC(=O)NC3=O)cc2)nc1` (stereo not drawn) [Pioglitazone], the chemical recovery in data set [1] (setting [4]) turned out to be 42.9 ± 3.5%; in data set [1] (setting [5]), 48.6 ± 3.3%; in data set [1] (setting [6]), 42.9 ± 6%. For the same compound, the “chemical recovery by SPE of plasma” value was found to be 45.8 ± 9.5% in data set [3] (equilibration time (d): 1), 49.1 ± 3% in data set [3] (equilibration time (d): 3) and 47 ± 6.1% in data set [3] (equilibration time (d): 6).
